Among the test systems are UACC-62 melanoma; HCT-116 colon; NCI-H226 lung; IGROV1 ovarian; SK-MEL-2 melanoma; SN12C renal; SF-268 CNS; OVCAR-5 ovarian; HCT-15 colon; RXF 393 renal.
Holding throughout (test): inhibition of tumour cell growth, NCI panel, 48 h

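Five compound concentrations were applied to cells in 96-well plates for 48 hours; endpoints were derived by simple linear interpolation of the resulting dose-response curve. Definition used: TGI = concentration required for complete inhibition of growth.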

Turning to `O=C(Nc1nn[nH]n1)c1nc(-c2ccccc2)cc(=O)[nH]1`, the TGI in the experiment on UACC-62 melanoma, with HCT-116 colon, in the experiment with NCI-H226 lung, with IGROV1 ovarian, with SK-MEL-2 melanoma and with SN12C renal was above 100 µM each time. Moreover, the TGI with SF-268 CNS, with OVCAR-5 ovarian, in the experiment with HCT-15 colon and in the experiment with RXF 393 renal was above 100 µM each time.

Turning to `N#Cc1c(N)nc2c3c1NC(=O)C(C(N)=O)C3c1ccccc1O2` (stereo not given), the TGI in the experiment with UACC-62 melanoma is above 100 µM; with HCT-116 colon it was above 100 µM; with NCI-H226 lung it was above 100 µM; with IGROV1 ovarian it was 79.8 µM; with SK-MEL-2 melanoma it was above 100 µM; in the experiment on SN12C renal it was above 100 µM. For the same molecule, the TGI with SF-268 CNS, with OVCAR-5 ovarian, in the experiment with HCT-15 colon and in the experiment with RXF 393 renal was above 100 µM each time.

Turning to `CC(C)(C)OC(=O)c1ccc(NCC2=C(Br)C(=O)C=CC2=O)cc1`, the TGI in the experiment with UACC-62 melanoma was 36.1 µM; in the experiment with HCT-116 colon, 35.2 µM; in the experiment with NCI-H226 lung, above 90.1 µM; in the experiment on IGROV1 ovarian, above 66.9 µM; in the experiment with SK-MEL-2 melanoma, above 71.1 µM; in the experiment on SN12C renal, 44 µM. Further, the TGI is above 67.8 µM in the experiment on SF-268 CNS, 56.1 µM in the experiment with OVCAR-5 ovarian, 32 µM in the experiment with HCT-15 colon and 37.5 µM in the experiment with RXF 393 renal.

`CC(C)=CCC[C@@H](C)C1=C(O)C(Nc2ccccc2I)=C(C)C(=O)C1=O`: the TGI in the experiment with UACC-62 melanoma was 31.3 µM; with HCT-116 colon, 34.8 µM; in the experiment on NCI-H226 lung, 18.4 µM; with IGROV1 ovarian, 17.9 µM; in the experiment on SK-MEL-2 melanoma, 29.4 µM; in the experiment with SN12C renal, above 75 µM. The TGI was above 69.3 µM in the experiment with SF-268 CNS, above 75 µM in the experiment on OVCAR-5 ovarian, above 75 µM in the experiment on HCT-15 colon and above 50 µM with RXF 393 renal.

In the case of `O=c1[nH]c(=O)n(C2OC(CO)C(O)C2O)cc1OCCCc1ccccc1` (stereo not given), the TGI in the experiment with UACC-62 melanoma, with HCT-116 colon, with NCI-H226 lung, with IGROV1 ovarian, in the experiment with SK-MEL-2 melanoma and with SN12C renal was above 100 µM each time. Moreover, the TGI in the experiment on SF-268 CNS, in the experiment on OVCAR-5 ovarian, in the experiment on HCT-15 colon and with RXF 393 renal was above 100 µM in each case.

Regarding `O=C(O)c1ccccc1C1c2ccccc2Oc2ccccc21`, the TGI was above 100 µM with UACC-62 melanoma; above 100 µM in the experiment on HCT-116 colon; 65.7 µM in the experiment with NCI-H226 lung; above 100 µM in the experiment with IGROV1 ovarian; 86.5 µM in the experiment on SK-MEL-2 melanoma; above 100 µM with SN12C renal. For the same molecule, the TGI in the experiment with SF-268 CNS, with OVCAR-5 ovarian, in the experiment on HCT-15 colon and in the experiment on RXF 393 renal was above 100 µM each time.

With `CC(=O)C(C)(C)CCC(C)(C)C(C)=O`, the TGI in the experiment on UACC-62 melanoma, with HCT-116 colon, in the experiment with NCI-H226 lung, with IGROV1 ovarian, in the experiment with SK-MEL-2 melanoma and in the experiment with SN12C renal was above 100 µM throughout. Moreover, the TGI in the experiment with SF-268 CNS, with OVCAR-5 ovarian, in the experiment on HCT-15 colon and in the experiment on RXF 393 renal was above 100 µM each time.

On to `O=[Se](O)O`, for which the TGI with UACC-62 melanoma was 4.66 µM; with HCT-116 colon, 15.6 µM; with NCI-H226 lung, 2.48 µM; with IGROV1 ovarian, 2.43 µM; with SK-MEL-2 melanoma, above 39.4 µM; with SN12C renal, above 100 µM. In addition, the TGI in the experiment on SF-268 CNS was 4.94 µM; in the experiment on OVCAR-5 ovarian, 4.82 µM; with HCT-15 colon, above 100 µM; in the experiment with RXF 393 renal, 10.3 µM.

`CC1(C)CC[C@]2(C(=O)O)CC[C@]3(C)[C@H](C(=O)C=C4[C@@]5(C)C=C(C#N)C(=O)C(C)(C)[C@@H]5CC[C@]43C)[C@@H]2C1`: the TGI with UACC-62 melanoma is 4.43 µM; with HCT-116 colon, 4.76 µM; in the experiment on NCI-H226 lung, 4.02 µM; with IGROV1 ovarian, 7.15 µM; with SK-MEL-2 melanoma, 3.88 µM; with SN12C renal, 2.97 µM. The TGI is 7.78 µM in the experiment with SF-268 CNS, 2.12 µM in the experiment on OVCAR-5 ovarian, 1.7 µM in the experiment on HCT-15 colon and 1.5 µM in the experiment on RXF 393 renal.

Take `O=C1C2C=CC(n3[nH]c(=O)n(Cc4ccccc4)c3=O)CC2C(=O)N1c1ccc(Br)cc1` (stereo not given): the TGI with UACC-62 melanoma, in the experiment on HCT-116 colon, with NCI-H226 lung, with IGROV1 ovarian, in the experiment with SK-MEL-2 melanoma and in the experiment on SN12C renal was above 100 µM in each case. In addition, the TGI in the experiment with SF-268 CNS, in the experiment with OVCAR-5 ovarian, with HCT-15 colon and in the experiment on RXF 393 renal was above 100 µM each time.

On to `NC(=O)CN1C=CCC(C(N)=O)=C1`, for which the TGI in the experiment with UACC-62 melanoma, with HCT-116 colon, with NCI-H226 lung, with IGROV1 ovarian, in the experiment with SK-MEL-2 melanoma and with SN12C renal was above 100 µM each time. Also, the TGI with SF-268 CNS, in the experiment with OVCAR-5 ovarian, in the experiment with HCT-15 colon and in the experiment with RXF 393 renal was above 100 µM in each case.

In the case of `CCN(CC)C(=O)CCN1CC1`, the TGI in the experiment on UACC-62 melanoma, with HCT-116 colon, in the experiment with NCI-H226 lung, in the experiment on IGROV1 ovarian, in the experiment with SK-MEL-2 melanoma and in the experiment with SN12C renal was above 10 µM throughout. Also, the TGI with SF-268 CNS, in the experiment with OVCAR-5 ovarian, in the experiment on HCT-15 colon and in the experiment with RXF 393 renal was above 10 µM each time.

As for `CC(CNC(N)=O)NC(N)=O` (stereo not given), the TGI in the experiment with UACC-62 melanoma, with HCT-116 colon, in the experiment with NCI-H226 lung, with IGROV1 ovarian, in the experiment on SK-MEL-2 melanoma and in the experiment on SN12C renal was above 100 µM each time. For the same molecule, the TGI in the experiment on SF-268 CNS, in the experiment with OVCAR-5 ovarian, in the experiment with HCT-15 colon and in the experiment with RXF 393 renal was above 100 µM each time.

For the origin of these results see PubChem BioAssay (NCI).
